Assay results reported in ChEMBL document CHEMBL1201862, “PubChem BioAssay data set” (2004).
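Tested at 5 concentrations; 48 h exposure; 96-well plates; endpoints linearly interpolated, else capped at highest concentration. GI50 = concentration required for 50% inhibition of growth.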 Active and inactive are the calls of the source. No stated cut-off is given here; in the data, active = GI50 up to about 1.1 µM and inactive = higher.

How the values were obtained:
Assay in all cases: NCI anticancer screen, dose series, 48 h
[1] = system: SF-295
[2] = system: SF-539
[3] = system: HOP-62
[4] = system: NCI/ADR-RES
[5] = system: HCT-15
[6] = system: MDA-MB-231
[7] = system: SNB-19
[8] = system: 786-0
[9] = system: NCI-H23
[10] = system: U-251
[11] = system: RXF 393
[12] = system: SNB-75
[13] = system: HL-60
[14] = system: SN12C
[15] = system: HCC 2998
[16] = system: ACHN
[17] = system: PC-3
[18] = system: HOP-92
[19] = system: CCRF-CEM
[20] = system: NCI-H226
[21] = system: OVCAR-5
[22] = system: OVCAR-4
[23] = system: MOLT-4
[24] = system: COLO 205
[25] = system: MDA-MB-435
[26] = system: DU-145
[27] = system: UACC-62
[28] = system: OVCAR-3
[29] = system: A549
[30] = system: T47D
[31] = system: SF-268
[32] = system: EKVX
[33] = system: K562
[34] = system: HT-29
[35] = system: SK-MEL-28
[36] = system: OVCAR-8
[37] = system: UACC-257
[38] = system: Malme-3M
[39] = system: SR
[40] = system: KM12
[41] = system: MCF7
[42] = system: NCI-H522
[43] = system: BT-549
[44] = system: M14
[45] = system: Hs-578T
[46] = system: HCT-116
[47] = system: RPMI-8226
[48] = system: TK-10
[49] = system: IGROV-1
[50] = system: MDA-N
[51] = system: NCI-H460
[52] = system: SW-620

Measured: GI50

O=C(NC1=C(Cl)C(=O)c2ccccc2C1=O)c1ccc(F)cc1
active: [13] 0.341 µM | [16] 0.938 µM | [19] 0.802 µM | [20] 1.1 µM | [27] 0.279 µM | [33] 0.91 µM | [42] 0.456 µM | [46] 0.455 µM | [52] 0.776 µM
inactive: [1] 4.06 µM | [2] 4.4 µM | [3] 13.9 µM | [4] 3.37 µM | [6] 4.4 µM | [7] 5.18 µM | [8] 10.8 µM | [9] 3.27 µM | [10] 1.85 µM | [11] 1.25 µM | [12] 5.83 µM | [14] 3.41 µM | [15] 3.48 µM | [17] 1.13 µM | [18] 1.61 µM | [21] 4.85 µM | [22] 6.67 µM | [23] 2.24 µM | [24] 2.44 µM | [25] 4.45 µM | [26] 4.68 µM | [28] 2.53 µM | [29] 5.37 µM | [30] 1.9 µM | [31] 7.57 µM | [32] 11.8 µM | [34] 3.49 µM | [35] 4.86 µM | [36] 5.47 µM | [37] 1.98 µM | [38] 1.52 µM | [39] 3.66 µM | [40] 3.08 µM | [41] 3.62 µM | [43] 3.46 µM | [44] 2.6 µM | [45] 8.91 µM | [47] 2.51 µM | [48] 5.09 µM | [49] 1.7 µM | [50] 3.33 µM | [51] 2.87 µM
0.535 µM: [5]
